Ten molecules from patent publication US6849455B1, “Enhanced recovery of transformed cells” (New York University, priority 2000, dated 2005) can be followed below.

One test relates to E. coli. The test can be described thus: Supplements to rich/selective media in RepFIC transformations. The following applies: for effective as substitute for the L-cysteine effect in RepFIC transformations: supplement to rich media, glutathione 300 micrograms per ml; for increase in the number of transformants: supplement added to the selective medium. The format is cell-based.

Test [1] concerns C600. Kind of test: Transformation of scL and scH RepFIC plasmid DNAs into C600. The format is cell-based, E. coli. Conditions: supplement added after electroporation and/or during selection. The method, then:
The package consists of homocysteine, ferrous sulfate, and magnesium sulfate.
To ascertain that the scL phenotype was heritable under all circumstances and viable, scL DNA was transferred into C600 by electroporation. Selection of transformants was carried out without additional supplements or in the presence of cysteine or glutathione. […] Thus, although an additional source of cysteine is still required under the conditions of this transformation, cysteine becomes toxic at the concentration that was previously used.
In order to identify the contribution of co-transmitted molecules that are easily removed, scL DNA was in vitro salt-stripped before being transformed. […] Plasmid preparations are associated with several proteins, of about 32 kda in size, which could be the dam-methyltransferase (GenBank accession no. J01600). Therefore, it is possible that the dam-methyltransferase is one significant component removed by the salt treatment.
The methylation reaction per se could have become limiting as a result of the removal of methyltransferase, and activation of the biosynthesis of S-adenosylmethionine (SAM), the methyl donor in the methylation reaction, could help overcome low enzyme levels in the cell. Homocysteine is a known co-inducer of the MetR regulon (Schell, 1993), and thus activates the synthesis of SAM (Palmer and Marinus, 1994). […]

For test [2], the system named is C600. The test can be described thus: Plasmid yield after overnight growth with glycerol as carbon source. The format is cell-based, E. coli. The following applies: homocysteine and ferrous sulfate supplements. The method, then: (§1) Glycerol, when used as a carbon source, avoids catabolite repression. The plasmid was prepared from the following hosts grown overnight with the supplements homocysteine and ferrous sulfate, using glycerol as a carbon source: C600 containing the non-imprinted plasmid, the lon host Δlon-510 (containing the imprinted scL plasmid), and C600 containing the imprinted scL plasmid. […] One interpretation of the difference seen between lanes 3-4 and 5-6 is that when Lon is present (C600) and there is no catabolite repression, the post-replicative steps occur at a sufficient rate to adjust for the recovery of the final product, scH plasmid. When Lon is absent, stimulation of steps occurring after normal Lon-processing are ineffective because the substrate for these steps is insufficient.

The next test deals with lon host Δlon-510. The description is as above. The format is cell-based, E. coli. The following applies: homocysteine and ferrous sulfate supplements. The method, then:
as §1

The subject of a further test is C600 hosts. Conditions: additives: cysteine, cystine, or glutathione.

Description for C600 hosts: Single colonies that were normal in appearance, selected after transformation of C600 hosts in the presence of cysteine (Table 1, row 1) were resuspended in liquid medium. Aliquots were streaked onto spectinomycin-containing plates and spectinomycin plates with the following additives: cysteine, cystine, or glutathione.
Single colonies selected after transformation of C600 hosts in the presence of cysteine (Table 1, row 1) were initially difficult to grow.

For the molecule `CC(=O)NC(CS)C(=O)O` (racemic) [-acetyl-D,L-cysteine, N-acetyl-D,L-cysteine], the “effective as substitute for the L-cysteine effect in RepFIC transformations” value (from here on “effective as substitute”) in the test on E. coli is “None of these was effective”.

In the case of `N[C@@H](CCS)C(=O)O` [Homocysteine, homocysteine], in the test with C600 [1], the “recovery of transformants with highly purified (salt-stripped) transforming DNA” value is given as “rescued the transforming ability”.

For `N[C@@H](CS(=O)(=O)O)C(=O)O` [L0cysteic acid, L-cysteic acid], the “effective as substitute” value with E. coli is on record as “None of these was effective”.

For `N=C(N)NCCC[C@H](N)C(=O)O` [L-arginine], in the test with E. coli, the “effective as substitute” value is on record as “None of these was effective”.

With `N[C@@H](CS)C(=O)O` [L-cysteine], the “recovery of transformants with highly purified (salt-stripped) transforming DNA” value in the test on C600 [1] is “no longer helped in the recovery of transformants”. In the test with E. coli (selective medium, RepFIC transformation), the “optimal concentration of cysteine” value stood at 400 micrograms per ml. Moreover, the “increase in the number of transformants” value in the test with E. coli (RepFIC) was ~10^3 fold.

As for `N[C@@H](CSSC[C@H](N)C(=O)O)C(=O)O` [L-cystine], the “effective as substitute” value with E. coli is listed as “None of these was effective”.

Consider `CSCC[C@H](N)C(=O)O` [L-methionine], for which the “effective as substitute” value in the test on E. coli is “None of these was effective”.

As to `O=S(=O)([O-])[O-].[Mg+2]` [Magnesium sulfate, magnesium sulfate], the “increase in the transformation efficiency” value in the test on E. coli (supplement added after electroporation, RepFIC) is on record as “no effect”. Moreover, the “increase in the number of transformants” value in the test with E. coli (RepFIC) is “no effect”.

With `OCC(O)CO` [glycerol], the “increase in yield of plasmid” value in the test with C600 [2] and in the test on lon host Δlon-510 was 5 to 10 fold in each case.

Regarding glutamyl-cysteinylglycine [glutathione], the “growth of cysteine-selected transformants on spectinomycin plates with additive” value in the test with C600 hosts was “only grew on the glutathione-supplemented plates”. Moreover, in the test on E. coli (glutathione 300 micrograms per ml compared to 400 micrograms cysteine per ml), the “number of colonies obtained” value is on record as “the same as with cysteine”. In the test with E. coli, the “effective as substitute” value was “effective”.
